Patent US20250115642A1, “PEPTIDE HAVING ANTIBACTERIAL, ANTI-INFLAMMATORY OR TISSUE REGENERATION ABILITY AND USE THEREOF” (priority 2022, published 2025)

Tests used:
Raw264.7 cells = assay: Cell penetration ability at the cellular level (confocal microscopy); assay type: cell-based, mouse; conditions: Rhodamine B labeled peptide, 50, 100 and 200 μM, 1 hour
Method: Raw264.7 cells were distributed 3×10^4 each into a 4-well chamber and cultured in DMEM medium for 24 hours to stabilize the cells. After 24 hours, fluorescently labeled peptide was added to the medium at concentrations of 50, 100, and 200 μM. After 1 hour of peptide treatment, a degree of penetration of the peptide into cells was observed using a confocal scanning fluorescence microscope. Cell nuclei were stained using 4′,6-diamidino-2-phenylindole (DAPI, Thermo Fisher, D1306). DIC represents the case observed under a general microscope, Nuceli represents the nucleus of a cell, Peptide represents the degree of penetration of a peptide bound to rhodamine B, and MERGE represents an image that overlaps images of DIC, Nuclei, and the penetrated peptide.

IL-6 = assay: ELISA of IL-6 secreted by LPS-treated THP-1 macrophages; assay type: cell-based, human; conditions: 1 μg/ml LPS, 200 μM peptide, 24 hours, compared with 20 ng/ml IL-4
Method: (§1) Anti-inflammatory activity was verified using human monocyte cell lines (THP-1, ATCC, TIB-202). In the case of monocyte cell lines, PMA (Phorbol 12-myristate 13-acetate, Merck, P1585) was inoculated to differentiate monocytes into macrophages, and then treated with 1 μg/ml LPS (lipopolysaccharide, Merck, L3024), an inflammation inducer. […] The amount of pro-inflammatory cytokines IL-6 (R&D system, D6050) and TNF-α secreted by cells present in the medium was confirmed through ELISA (enzyme-linked immunosorbent assay).

[1] = system: artificial biofilm of Aggregatibacter actinomycetemcomitans and Porphyromonas gingivalis; assay: Antibacterial activity in artificial biofilm on titanium disk (LIVE/DEAD staining); assay type: cell-based; conditions: 24 hours after inoculation; 50 μg/ml = 29 μM
Method: Periodontitis-causing bacteria exist in the oral cavity in a form of a biofilm, and thus in order to imitate this, an artificial biofilm was created on the surface of a titanium disk using A. a. (Aggregatibacter actinomycetemcomitans) and P. g. (Porphyromonas gingivalis) bacteria. Saliva and bacteria were mixed on a titanium disk, placed in BHI liquid medium, and cultured in an anaerobic incubator at 37° C. After 72 hours, 50 μg/ml (=29 μM), 100 μg/ml (=58 μM), 250 μg/ml (=144 μM), and 500 μg/ml (=288 μM) peptides and 1 μg/ml minocycline as a positive control were inoculated. 24 hours later after inoculation, a titanium disk with biofilm formed on the surface was obtained and the biofilm was stained using the Filmtracer LIVE/DEAD Biofilm Viability Kit (Thermo Fisher, L10316). Live bacteria are stained green, and dead bacteria are stained red. The titanium disk was observed using a confocal scanning fluorescence microscope.

phosphorylated IκBα = assay: Western blot of plkBa in LPS-treated Raw264.7 cells; assay type: cell-based, mouse
Method: (§2) Raw264.7 cells were purchased from ATCC (American Type Culture Collection) and used in the experiment. Raw264.7 cells were cultured in a CO2 incubator at 37° C. supplied with 5% CO2 and 95% air using DMEM (Dulbecco's modified Eagle medium) medium supplemented with 10% FBS and 100 units/ml antibiotics (penicillin-streptomycin).
(§3) Raw264.7 cells were treated with 200 μM of the peptide having the amino acid sequence of SEQ ID NO: 1 for 30 minutes, and then treated with 1 μg/ml LPS (lipopolysaccharide, Merck, L3024). After 8 hours, the treated cells were collected, protease inhibitor cocktail and phosphatase inhibitor cocktail were added to Radioimmunoprecipitation assay buffer (RIPA buffer solution, Thermo Fisher, 89900), and the cells were treated to lyse the cells. After centrifuging the cell lysate and collecting the supernatant, the concentration of the cell lysate was measured using a bicinchoninic acid assay (BCA assay, Thermo Fisher, 23227), and RIPA buffer solution was added thereto to prepare the cell lysate to a final concentration of 5 mg/mL. Then, it was mixed with a buffer solution including 1M Tris-HCl (pH 6.8), 50% glycerol, and 10% SDS in a 4:1 ratio, and then sodium dodecyl sulfate-poly acrylamide gel electrophoresis (SDS-PAGE) was performed. […]

TNF-α = assay: ELISA of TNF-α secreted by LPS-treated THP-1 macrophages; assay type: cell-based, human; conditions: 1 μg/ml LPS, 200 μM peptide, 24 hours, compared with 20 ng/ml IL-4
Method: as §1

phosphorylated NF-κB = assay: Western blot of pNFkB in LPS-treated Raw264.7 cells; assay type: cell-based, mouse
Method: as §2, §3

Porphyromonas gingivalis = assay: Inhibiting growth of periodontitis-causing bacteria (absorbance 600 nm); assay type: cell-based; conditions: Pg
Method: (§4) To evaluate the antibacterial activity, representative periodontitis-causing bacteria, Aggregatibacter actinomycetemcomitans and Porphyromonas gingivalis, were used. Each bacterium was inoculated into BHI (brain heart infusion) liquid medium and cultured in an anaerobic incubator at 37° C. and 120 rpm for 48 hours. After incubation, the peptide having the amino acid sequence of SEQ ID NO: 1 was treated at 100 μM, 250 μM, and 500 μM. As a positive control, minocycline (Merck, M9511) was inoculated at 500 ng/ml, and then 24 hours later, the absorbance was measured at 600 nm using a spectrophotometer to confirm a degree of bacterial growth.

[2] = system: Aggregatibacter actinomycetemcomitans; assay: as above; assay type: cell-based; conditions: Aa
Method: as §4

[3] = 200 μM peptide for 30 minutes, then 1 μg/ml LPS, 8 hours

Sequence: GKCSTRGRKSSRRKK (PEPTIDE HAVING ANTIBACTERIAL, …ON OR TISSUE …ON) [SEQ ID NO: 1, 15-mer peptide having antibacterial, anti-inflammatory and cell penetrating ability]
- concentration dependence of fluorescence intensity in cells (Raw264.7 cells): as the concentration of peptide increased, the intensity of fluorescence also increased
- fluorescence of rhodamine B in cells (Raw264.7 cells): fluorescence of rhodamine B (red) could be confirmed
- IL-6 value (IL-6): lowered to a similar level as when treated with IL-4
- concentration at which killed bacteria (red) were observed in biofilm [1]: ≥ 50 µg/mL
- expression of plkBa (phosphorylated IκBα; [3]): suppressed
- effect on the expression of plkBa (phosphorylated IκBα; only the peptide, without LPS): no effect
- TNF-α value (TNF-α): lowered to a similar level as when treated with IL-4
- expression of pNFκB (phosphorylated NF-κB; [3]): suppressed
- effect on the expression of pNFκB (phosphorylated NF-κB; only the peptide, without LPS): no effect
- effect compared to minocycline (Porphyromonas gingivalis; all concentration ranges (100, 250, 500 μM) vs minocycline 500 ng/ml): better effect than minocycline
- survival rate of bacteria (Porphyromonas gingivalis; at 100 μM or more, 24 hours): less than or equal to 50%
- survival rate of bacteria ([2]; at 250 μM or more, 24 hours): less than or equal to 50%
- survival rate compared to minocycline ([2]; peptide 500 μM vs minocycline 500 ng/ml): higher than when treated with minocycline 500 ng/ml, but showed a similar effect
